# Experimental data reported in patent publication US20080188688A1, “SOLVENTS FOR PHASE-TRANSFER-CATALYZED REACTIONS” (priority 2007, published 2008).
# Experiment: Log P determined in accordance with OECD Guideline No. 107 for the Testing of Chemicals (water/n-octanol)
# [1] = Log P (Log P value of the solvent, as measured in accordance with Guideline No. 107), summary table of the examples
# [2] = Log P determined in accordance with OECD Guideline 107 for the Testing of Chemicals, water/n-octanol 1:1 by weight, 20° C.
# [3] = log P value, as printed in the abbreviations list
SMILES,logP [1],logP [2],logP [3]
CCCCCCCCCC(=O)N(C)C [Decanoic acid dimethyl amide],2.94,2.94,2.94
"CC(=O)CC(C)C [MIBK, methyl isobutyl ketone]",1.4,1.4,1.31
"COC(C)(C)C [MTBE, methyl tert.butyl ether]",1.12,1.12,–
